Holding throughout (type): cell-based
In one assay the test system is OVTOKO cells. The experiment in a line: Cell growth inhibitory effect on human ovarian cancer cell line (cell counting kit 8, 6 days). The following applies: 144 h, 6 days incubation. The gist of the method:
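Cells in RPMI1640 with 10% FBS plated at 500 cells/well (OVTOKO 250/well) and cultured one day at 37° C, 5% CO2. Serially diluted compound added (final DMSO 0.1%) for 6 days; viable cells measured at addition and day 6 with CCK-8, absorbance 450 nm. GI50 derived from growth inhibition rate.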

For another assay, the system named is NCI-H226 cells. The experiment in a line: Cell growth inhibitory effect on human mesothelioma cell line (cell counting kit 8, 6 days). The note with it: NCI-H226, 144 h. The text has this:
(§1) NCI-H226 cells, a human mesothelioma cell line (ATCC, CRL-5826), NCI-H322 cells, a human lung cancer cell line (the European Collection of Authenticated Cell Cultures, 95111734), OUTOKO cells, a human ovarian cancer cell line (JCRB cell bank, KRB1048) and […] were each subcultured by keeping the cell density under 80% in a RPMI1640 culture medium with 10% fetal bovine serum (FBS). NCI-H226 cells, NCI-H322 cells and SSP-25 cells were each suspended in the RPMI1640 culture medium mentioned above, and plated to a 96-well flat-bottom plate at 500 cells/well in each well, and incubated at 37° C. in an incubator with 5% CO2 for one day. After the incubation, the evaluation of cell growth inhibitory activity was started. OVTOKO cells were suspended in the RPMI1640 culture medium mentioned above, and plated to a 96-well flat-bottom plate at 250 cells/well in each well, and incubated it at 37° C. in an incubator with 5% CO2 for one day. After the incubation, the evaluation of the cell growth inhibitory activity was started. The next day, a test compound was serially diluted to 5 times of its final concentration in the RPM11640 culture medium mentioned above, and the diluted solution was added to each well. In this case, the final concentration of DMSO in each well was adjusted to 0.1%. After the test compound was added, cells were incubated at 37° C. in an incubator with 5% CO2 for 6 days. At the addition of the test compound and 6 days after the addition, the cell counting measurement was performed using a cell counting kit 8 (made by DOJINDO) according to a protocol equivalent to DOJINDO's recommendation. A reagent contained in the kit was added to each plate and color reaction was performed for 2 or 3 hours at 37° C. in an incubator with 5% CO2. After the reaction, an absorbance at wavelength of 450 nm was measured using a microplate reader. A growth inhibition rate was calculated according to the following formula, from which the concentration of a test compound at which cell growth was inhibited by 50% (GI50 value) was determined.
For orientation: Tetrazolium dyes change colour on reduction, which living cells bring about.

A further assay concerns NCI-H322 cells. The experiment in a line: Cell growth inhibitory effect on human lung cancer cell line (cell counting kit 8, 6 days). The note with it: 144 h; human lung cancer cell line NCI-H322, 6 days incubation.
From the text: as §1

Another assay concerns HuH28 cells. The experiment in a line: Cell growth inhibitory effect on human liver cancer cell line (cell counting kit 8, 6 days). The note with it: 144 h; human liver cancer cell line HuH28, 6 days incubation.
From the text: as §1

In general, GI50 refers to the concentration that inhibits growth by half. A lower GI50 goes with greater sensitivity of the cells.

Structures are written as SMILES.

For the compound `C=CC(=O)N[C@@H]1CC[C@H](Oc2ccc(C(F)(F)F)cc2)c2nc(OC)ccc21` (relative stereo) [Compound 179, cis-N-[2-Methoxy-8-{4-(trifluoromethyl)phenoxy}-5,6,7,8-tetrahydroquinolin-5-yl]acrylamide], the GI50 in the assay with OVTOKO cells is ≤ 3 µM; with NCI-H226 cells, < 0.1 µM; with NCI-H322 cells, < 1 µM; in the assay with HuH28 cells, < 3 µM.

As for `C=CC(=O)N[C@@H]1CC[C@H](Oc2ccc(C(F)(F)F)cc2)c2nc(C3CC3)ccc21` (relative stereo) [Compound 185, cis-N-[2-Cyclopropyl-8-{4-(trifluoromethyl)phenoxy}-5,6,7,8-tetrahydroquinolin-5-yl]acrylamide], the GI50 in the assay with OVTOKO cells was ≤ 3 µM; in the assay with NCI-H226 cells, < 0.1 µM; in the assay with NCI-H322 cells, < 1 µM; in the assay with HuH28 cells, < 3 µM.

For `C=CC(=O)N[C@@H]1CC[C@H](Oc2ccc(C(F)(F)F)c(F)c2)c2nc(Cl)ccc21` (relative stereo) [Compound 187, cis-N-[2-Chloro-8-{3-fluoro-4-(trifluoromethyl)phenoxy}-5,6,7,8-tetrahydroquinolin-5-yl]acrylamide], the GI50 with OVTOKO cells is ≤ 3 µM; with NCI-H226 cells it was < 0.1 µM; with NCI-H322 cells it was < 1 µM; with HuH28 cells, < 3 µM.

Consider `C=CC(=O)N[C@@H]1CC[C@H](Oc2ccc(C(F)(F)F)cn2)c2nc(Cl)ccc21` (relative stereo) [Compound 189, cis-N-(2-Chloro-8-[{5-(trifluoromethyl)pyridin-2-yl}oxy]-5,6,7,8-tetrahydroquinolin-5-yl)acrylamide], for which the GI50 in the assay on OVTOKO cells is ≤ 3 µM; with NCI-H226 cells, < 0.1 µM; in the assay with NCI-H322 cells, < 1 µM; with HuH28 cells, < 3 µM.

In the case of `C=CC(=O)NC1CC[C@H](Oc2cccc(Cl)c2)c2ncccc21` (stereo in doubt) [Compound 68, cis-N-{8-(3-Chlorophenoxy)-5,6,7,8-tetrahydroquinolin-5-yl}acrylamide], the GI50 in the assay with OVTOKO cells was ≤ 3 µM; in the assay with NCI-H226 cells, < 0.1 µM; in the assay with NCI-H322 cells, < 1 µM; with HuH28 cells, < 3 µM.

`C=CC(=O)NC1CCOc2c1ccc(Oc1ccc(C(F)(F)F)nc1)c2OC` (stereo not shown) [Compound 163, N-(8-Methoxy-7-[{6-(trifluoromethyl)pyridin-3-yl}oxy]chroman-4-yl)acrylamide]: the 50% growth inhibitory concentration (GI50) is ≤ 3 µM in the assay with OVTOKO cells, < 0.1 µM in the assay with NCI-H226 cells, < 1 µM in the assay on NCI-H322 cells and < 3 µM in the assay with HuH28 cells.

For `C=CC(=O)Nc1cncc(OCC2CCC(F)(F)CC2)c1` [Compound 192], the GI50 in the assay on OVTOKO cells is ≤ 3 µM; with NCI-H226 cells it was 0.1 to 1 µM; with NCI-H322 cells, < 1 µM; in the assay with HuH28 cells, < 3 µM.

Regarding `C=CC(=O)NCc1ccc(Oc2ccc(C(F)(F)F)cc2)c2nc(C)oc12` [Compound 243, N-([2-Methyl-4-{4-(trifluoromethyl)phenoxy}benzo[d]oxazol-7-yl]methyl) acrylamide], the GI50 in the assay with OVTOKO cells was ≤ 3 µM; with NCI-H226 cells, < 0.1 µM; with NCI-H322 cells, < 1 µM; in the assay on HuH28 cells, < 3 µM.

`C=CC(=O)NCc1ccc(Oc2ccc(C(F)(F)F)cc2)c2nc(CC)oc12` [Compound 244, N-([2-Ethyl-4-{4-(trifluoromethyl)phenoxy}benzo[d]oxazol-7-yl]methyl)acrylamide]: the GI50 in the assay with OVTOKO cells was ≤ 3 µM; in the assay with NCI-H226 cells, < 0.1 µM; in the assay on NCI-H322 cells it was < 1 µM; in the assay with HuH28 cells, < 3 µM.

As for `C=CC(=O)NCc1ccc(Oc2ccc(C(F)(F)F)cc2)c2nc(C(C)C)oc12` [Compound 245, N-([2-Isopropyl-4-{4-(trifluoromethyl)phenoxy}benzo[d]oxazol-7-yl]methyl)acrylamide], the GI50 with NCI-H226 cells is < 0.1 µM; with NCI-H322 cells, < 1 µM; in the assay with HuH28 cells, < 3 µM.

For the compound `C=CC(=O)NCc1ccc(Oc2ccc(C(F)(F)F)cc2)c2nc(-c3ccccc3)oc12` [Compound 246, N-([2-Phenyl-4-{4-(trifluoromethyl)phenoxy}benzo[d]oxazol-7-yl]methyl) acrylamide], the GI50 was 0.1 to 1 µM in the assay on NCI-H226 cells, < 1 µM in the assay on NCI-H322 cells and < 3 µM in the assay on HuH28 cells.

With `C=CC(=O)NCc1ccc(Oc2ccc(C(F)(F)F)cc2)c2ncoc12` [Compound 247, N-([4-{4-(Trifluoromethyl)phenoxy}benzo[d]oxazol-7-yl]methyl)acrylamide], the GI50 with OVTOKO cells is ≤ 3 µM; in the assay with NCI-H226 cells, < 0.1 µM; with NCI-H322 cells, < 1 µM; in the assay on HuH28 cells it was < 3 µM.

`C=CC(=O)NCc1ccc(Oc2ccc(C(F)(F)F)nc2)c2nc(C)oc12` [Compound 249, N-{(2-Methyl-4-[{6-(trifluoromethyl)pyridin-3-yl}oxy]benzo[d]oxazol-7-yl)methyl}acrylamide]: the GI50 with OVTOKO cells was ≤ 3 µM; with NCI-H226 cells it was < 0.1 µM; in the assay with NCI-H322 cells, < 1 µM; in the assay on HuH28 cells, < 3 µM.

As to `C=CC(=O)NCc1ccc(Oc2ccc(C(F)(F)F)nc2)c2nc(CC)oc12` [Compound 251, N-{(2-Ethyl-4-[{6-(trifluoromethyl)pyridin-3-yl}oxy]benzo[d]oxazol-7-yl)methyl}acrylamide], the GI50 with NCI-H226 cells is < 0.1 µM; with NCI-H322 cells, < 1 µM; in the assay with HuH28 cells, < 3 µM.

Take `C=CC(=O)NCc1ccc(Oc2ccc(C(F)(F)F)cn2)c2nc(CC)oc12` [Compound 252, N-{(2-Ethyl-4-[{5-(trifluoromethyl)pyridin-2-yl}oxy]benzo[d]oxazol-7-yl)methyl}acrylamide]: the GI50 is < 0.1 µM in the assay with NCI-H226 cells, < 1 µM with NCI-H322 cells and < 3 µM in the assay on HuH28 cells.

For `C=CC(=O)NCc1ccc(Oc2ccc(C(F)(F)F)cc2)c2oc(C)nc12` [Compound 253, N-([2-Methyl-7-{4-(trifluoromethyl)phenoxy}benzo[d]oxazol-4-yl]methyl)acrylamide], the GI50 was < 0.1 µM in the assay with NCI-H226 cells, < 1 µM with NCI-H322 cells and < 3 µM in the assay with HuH28 cells.

Take `C=CC(=O)NCc1ccc(Oc2ccc(C(F)(F)F)cc2)c2sc(C)nc12` [Compound 257, N-([2-Methyl-7-{4-(trifluoromethyl)phenoxy}benzo[d]thiazol-4-yl]methyl)acrylamide]: the GI50 in the assay with NCI-H226 cells is < 0.1 µM; in the assay with NCI-H322 cells, < 1 µM; in the assay with HuH28 cells it was < 3 µM.

On to `C=CC(=O)NCc1ccc(S(=O)(=O)c2ccc(C(F)(F)F)cc2)c2nc(C)oc12` [Compound 271, N-{(2-Methyl-4-[{4-(trifluoromethyl)phenyl}sulfonyl]benzo[d]oxazol-7-yl)methyl}acrylamide], for which the values for the GI50 with OVTOKO cells and in the assay on HuH28 cells were ≤ 3 µM and < 3 µM, respectively.

Take `C=CC(=O)NCc1ccc(/C=C/c2ccc(C(F)(F)F)cc2)c2nc(C)oc12` [Compound 273, (E)-N-([2-Methyl-4-{4-(trifluoromethyl)styryl}benzo[d]oxazol-7-yl]methyl)acrylamide]: the values for the GI50 in the assay with OVTOKO cells, with NCI-H226 cells and in the assay with HuH28 cells were ≤ 3 µM, 0.1 to 1 µM and < 3 µM, respectively.

For the compound `C=CC(=O)NCc1ccc(OC2CCCCC2)c2nc(C)oc12` [Compound 276, N-[{4-(Cyclohexyloxy)-2-methylbenzo[d]oxazol-7-yl}methyl]acrylamide], the GI50 in the assay with OVTOKO cells was ≤ 3 µM; in the assay on NCI-H226 cells it was < 0.1 µM; in the assay on HuH28 cells, < 3 µM.

The values are drawn from patent publication US11447471B2, “α,β-unsaturated amide compound” (KYOWA KIRIN CO., LTD., priority 2017, dated 2022).
